US7148215B2, “Chemical compounds” (Aventis Pharma S.A., priority 2001, dated 2006)
Structures can show the parent of a compound that is named as a salt.

What was measured:
[1] = system: rat cerebellar granule neurons; assay: Effect of JNK inhibitors on LY294002-induced cytotoxicity in cerebellar granule cells (MTT); format: cell-based
Description: 7. Effect of JNK Inhibitors on Cytotoxicity in Cerebellar Granule Cells
LY294002 is a reversible inhibitor of PI3K and activates JNKs with subsequent cell death. We have investigated the ability of the JNK inhibitors to protect against LY294002-induced cell death in a cerebellar granule cell preparation.
Primary cerebellar cell cultures were prepared from 7-day-old Sprague-Dawley rats. Cerebella were carefully collected, dissected free of meninges and cut into 5–7 parts. Tissues were gently mechanically dissociated after digestion with VERSENE (5 minutes, 37° C.). The cells were seed onto 96-well plates pre-coated with poly-D-lysine (Becton-Dickinson) at a final density of 10^5 cells per well. Cultures were maintained at 37° C. in a humidified atmosphere with 5% CO2 and used after the 9th day of culture in DMEM medium complemented with 5% fetal calf serum, 5% horse serum and 30 mM potassium chloride in the presence of an anti-mitotic (10 μM cytosine arabinoside). The drugs were directly added to the culture at the indicated concentrations for 24 hours. Neuronal viability was assessed quantitatively by the colorimetric measurement of Mosmann or MTT assay (1983, J. Immunol. Methods, 65, 55–63). Each condition was tested in sextuplicate or triplicate and the mean values obtained analyzed statistically by one-way ANOVA, followed by Dunnett's multiple comparison test. […]

| SMILES | melting point | also measured |
| --- | --- | --- |
| NC(=O)c1c(Cl)cn2c1CN(S(=O)(=O)c1ccc(-c3ccccn3)s1)CC2 | 213 to 214 °C |  |
| CS(=O)(=O)N1CCC(c2c(C#N)c(C(N)=O)c3n2CCN(C(=O)Nc2ccc(F)cc2)C3)CC1 | 177 to 180 °C |  |
| N#Cc1c(C(N)=O)c2n(c1C(F)(F)F)CCN(C(=O)Nc1ccc(C(F)(F)F)cc1)C2 | 243 to 246 °C (dec.) |  |
| O=c1cc(N2CCOCC2)oc2c(-c3ccccc3)cccc12 [LY294002, reference compound] |  | neurotoxic effect on cerebellar granule neurons ([1]; 3–100 μM added to cells cultured in high potassium medium, FIG. 1): induced neuronal death |
| CS(=O)(=O)N1CCC(c2c(C#N)c(C(N)=O)c3n2CCN(C(=O)Nc2ccc(C#N)cc2)C3)CC1 | 218 to 221 °C |  |
| N#Cc1c(C(N)=O)c2n(c1C1CC1)CCN(C(=O)Nc1ccc(C(=O)NCCN3CCOCC3)cc1)C2 | 197 to 199 °C |  |
| N#Cc1c(C(N)=O)c2n(c1C1CC1)CCN(S(=O)(=O)c1ccc(C(F)(F)F)cc1)C2 | 253 to 256 °C |  |
| NC(=O)c1c(Cl)c(-c2ccccc2)n2c1CN(S(=O)(=O)Nc1ccccc1)CC2 | 207 to 208 °C |  |
| NC(=O)c1c(Cl)c(-c2ccccc2)n2c1CN(S(=O)(=O)c1cccs1)CC2 | 240 to 242 °C |  |
| N#Cc1c(C(N)=O)c2n(c1C1CCOCC1)CCN(C(=O)Nc1cccc(C(F)(F)F)c1)C2 | 200 to 202 °C (dec.) |  |
| N#Cc1c(C(N)=O)c2n(c1C1CC1)CCN(C(=O)Nc1ccc(F)cc1)C2 [Example 9(a), 7-Cyano-6-cyclopropyl-3,4-dihydro-1H-pyrrolo[1,2-a]pyrazine-2,8-dicarboxylic acid 8-amide 2-[(4-fluorophenyl)amide]] | 232 to 234 °C | IC50 ([1]; Neuron, LY294002 30 μM, rat cerebellar granule cells after 9 days of culture, 24 hours, MTT, FIG. 2, read-out: protection against LY294002-induced toxicity, IC50): 7 µM |
| NC(=O)c1c(Cl)c(C2CC2)n2c1CNCC2 (as salt: trifluoroacetic acid salt) | 237 to 239 °C |  |
| N#Cc1c(C(N)=O)c2n(c1C1CC1)CCN(C(=O)Nc1ccc(C(F)(F)F)nc1)C2 | 149 to 153 °C |  |
| NC(=O)c1c(Cl)c(-c2ccccc2)n2c1CN(C(=O)CCC1CCCCC1)CC2 | 181 to 182 °C |  |

Further lines, with some results ahead:

| melting point | SMILES | also measured |
| --- | --- | --- |
| 176 to 178 °C | COc1ccc(NC(=S)N2CCn3c(c(C(N)=O)c(Cl)c3-c3ccccc3)C2)cc1 |  |
| 170 to 173 °C | COc1ccc(NC(=O)N2CCn3c(-c4ccccc4)cc(C(N)=O)c3C2)cc1 |  |
| 196 to 198 °C | N#Cc1ccc(NC(=O)N2CCn3c(c(C(N)=O)c(Cl)c3C3CC3)C2)cc1 |  |
| 249 to 250 °C | NC(=O)c1c(Cl)cn2c1CN(C(=O)Nc1ccc(-c3ccccn3)s1)CC2 |  |
| 246 to 248 °C | COc1ccc(NC(=O)N2CCn3c(c(C(N)=O)c(Cl)c3-c3ccccc3)C2)cc1 |  |
| 219 to 220 °C | N#Cc1c(C(N)=O)c2n(c1-c1ccccc1)CCN(C(=O)Nc1cccc(F)c1)C2 |  |
| 296 to 298 °C (dec.) | N#Cc1c(C(N)=O)c2n(c1C1CCOCC1)CCN(C(=O)Nc1ccc3ncccc3c1)C2 |  |
| 275 to 279 °C | N#Cc1c(C(N)=O)c2n(c1-c1cccnc1)CCN(C(=O)Nc1ccc(F)cc1)C2 |  |
| 205 to 206 °C | NC(=O)c1c(Cl)c(-c2cccnc2)n2c1CN(S(=O)(=O)c1ccc(C(F)(F)F)cc1)CC2 |  |
| 229 to 231 °C | NC(=O)c1c(Cl)cn2c1CN(C(=O)Nc1ccc(F)cc1)CC2 |  |
| 170 °C | COc1ccc(N/C(=N\C#N)N2CCn3c(c(C(N)=O)c(Cl)c3-c3ccccc3)C2)cc1 |  |
| 221 to 222 °C | Cc1ccc(-c2c(Cl)c(C(N)=O)c3n2CCN(C(=O)Nc2ccc4ncccc4c2)C3)cn1 |  |
| 176 to 180 °C | NC(=O)c1c(Cl)c(-c2ccccc2)n2c1CN(C(=O)Cc1ccccc1O)CC2 |  |
| 266 to 267 °C | NC(=O)c1c(Cl)c(C2CC2)n2c1CN(C(=O)Nc1ccc(F)cc1)CC2 [Example 3] |  |
| 196 to 198 °C | NC(=O)c1c(Cl)c(-c2ccccc2)n2c1CN(C(=O)Oc1ccccc1)CC2 |  |
| 291 to 296 °C | N#Cc1ccc(NC(=O)N2CCn3c(c(C(N)=O)c(C#N)c3-c3cccnc3)C2)cc1 |  |
| 286 to 288 °C | N#Cc1c(C(N)=O)c2n(c1-c1ccccc1)CCN(C(=O)Nc1ccc(C(=O)O)cc1)C2 |  |
| 235 to 238 °C (dec.) | Cc1ccc(-c2c(Cl)c(C(N)=O)c3n2CCN(C(=O)Nc2ccc(F)cc2)C3)cn1 |  |
| 261 to 263 °C | NC(=O)c1c(Cl)c(-c2ccccc2)n2c1CN(C(=O)Nc1cccnc1)CC2 |  |
| 230 to 231 °C | NC(=O)c1c(Cl)c(C2CC2)n2c1CN(C(=O)Nc1ccc(F)cc1)CC2 [Example 16(a)] |  |
| 229 to 231 °C | Cc1c(Cl)c(C(N)=O)c2n1CCN(C(=O)Nc1cccc(F)c1)C2 |  |
